pKi: −log10 of the molar value.
Each molecule was assayed against T1, Caspase-1 (Homo sapiens, UniProt P29466) (assay: Reversible inhibition of recombinant human IL-1 beta converting enzyme.).
T1 sequence (P29466 whole entry): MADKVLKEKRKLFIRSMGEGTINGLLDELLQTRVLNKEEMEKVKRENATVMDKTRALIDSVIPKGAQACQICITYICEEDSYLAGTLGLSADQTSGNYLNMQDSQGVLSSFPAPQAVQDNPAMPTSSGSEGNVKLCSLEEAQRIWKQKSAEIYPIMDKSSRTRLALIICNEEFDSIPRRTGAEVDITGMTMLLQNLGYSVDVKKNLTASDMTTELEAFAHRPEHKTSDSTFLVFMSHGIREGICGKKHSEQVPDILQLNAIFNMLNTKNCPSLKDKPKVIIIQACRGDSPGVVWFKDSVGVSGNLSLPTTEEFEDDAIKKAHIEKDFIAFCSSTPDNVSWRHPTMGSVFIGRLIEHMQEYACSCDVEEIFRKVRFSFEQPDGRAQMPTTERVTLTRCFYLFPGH

| SMILES | pKi |
| --- | --- |
| CC(=O)N[C@@H](Cc1ccc(O)cc1)C(=O)N[C@H](C(=O)N[C@@H](C)C(=O)N[C@@H](CC(=O)O)C(=O)COc1ccccc1)C(C)C | 8.96 |
| O=C(O)C[C@H](NC(=O)Cn1c(Cc2ccccc2)ccc(NC(=O)c2cccc3ccccc23)c1=O)C(=O)COc1ccccc1 | 8.00 |
| O=C(O)C[C@H](NC(=O)C(c1ccccc1)n1cccc(NC(=O)c2ccc3ccccc3c2)c1=O)C(=O)COc1ccccc1 (some centres not stated) | 8.89 |
| COCC(C(=O)N[C@@H](CC(=O)O)C(=O)COc1ccccc1)n1cccc(NC(=O)c2ccc3ccccc3c2)c1=O (some centres not stated) | 8.15 |
| CCc1ccc(NC(=O)c2cccc3ccccc23)c(=O)n1CC(=O)N[C@@H](CC(=O)O)C(=O)COc1ccccc1 | 7.40 |
| CC(C)[C@H](NC(=O)c1ccc2ccccc2c1)C(=O)N[C@@H](C)C(=O)NC(CC(=O)O)C(=O)COc1ccccc1 (some centres not stated) | 9.82 |
| O=C(O)C[C@H](NC(=O)C(c1ccccc1)n1cccc(NC(=O)c2cccc3ccccc23)c1=O)C(=O)COc1ccccc1 (some centres not stated) | 8.74 |
| Cc1ccc(NC(=O)c2ccccc2)c(=O)n1CC(=O)N[C@@H](CC(=O)O)C(=O)COc1ccccc1 | 6.28 |
| O=C(O)C[C@H](NC(=O)Cn1c(-c2ccccc2)ncc(NC(=O)c2cccc3ccccc23)c1=O)C(=O)COc1ccccc1 | 7.18 |
| CCCCc1ncc(NC(=O)c2cccc3ccccc23)c(=O)n1CC(=O)N[C@@H](CC(=O)O)C(=O)COc1ccccc1 | 7.34 |
| CCCCC(C(=O)N[C@@H](CC(=O)O)C(=O)COc1ccccc1)n1cccc(NC(=O)c2cccc3ccccc23)c1=O (some centres not stated) | 8.28 |
| CC(C)[C@H](NC(=O)c1ccc2ccccc2c1)C(=O)N1CCCC[C@H]1C(=O)NC(CC(=O)O)C(=O)COc1ccccc1 (some centres not stated) | 9.82 |
| CC(C)[C@H](NC(=O)c1ccc2ccccc2c1)C(=O)N1CCC[C@H]1C(=O)NC(CC(=O)O)C(=O)COc1ccccc1 (some centres not stated) | 9.70 |

Other lines, results leading:

| pKi | SMILES |
| --- | --- |
| 8.85 | CCC(C(=O)N[C@@H](CC(=O)O)C(=O)COc1ccccc1)n1cccc(NC(=O)c2ccc3ccccc3c2)c1=O (some centres not stated) |
| 5.14 | CCCC(C(=O)N[C@@H](CC(=O)O)C(=O)COc1ccccc1)n1c(-c2ccccc2)ccc(NC(=O)c2cccc3ccccc23)c1=O (some centres not stated) |
| 8.70 | O=C(O)C[C@H](NC(=O)C(c1ccccn1)n1cccc(NC(=O)c2ccc3ccccc3c2)c1=O)C(=O)COc1ccccc1 (some centres not stated) |
| 6.23 | Cc1ccc(NC(=O)OCc2ccccc2)c(=O)n1CC(=O)N[C@@H](CC(=O)O)C(=O)COc1ccccc1 |
| 8.66 | CCC(C(=O)N[C@@H](CC(=O)O)C(=O)COc1ccccc1)n1cccc(NC(=O)c2cccc3ccccc23)c1=O (some centres not stated) |
| 7.17 | CCCc1ccc(NC(=O)c2cccc3ccccc23)c(=O)n1CC(=O)N[C@@H](CC(=O)O)C(=O)COc1ccccc1 |
| 7.68 | CC(C)C(C(=O)N[C@@H](CC(=O)O)C(=O)COc1ccccc1)n1cccc(NC(=O)c2cccc3ccccc23)c1=O (some centres not stated) |
| 7.80 | CCCCc1ccc(NC(=O)c2cccc3ccccc23)c(=O)n1CC(=O)N[C@@H](CC(=O)O)C(=O)COc1ccccc1 |
| 7.41 | O=C(O)C[C@H](NC(=O)Cn1cccc(NC(=O)c2cccc3ccccc23)c1=O)C(=O)COc1ccccc1 |
| 7.02 | Cc1ccc(NC(=O)c2cccc3ccccc23)c(=O)n1CC(=O)N[C@@H](CC(=O)O)C(=O)COc1ccccc1 |
| 6.80 | Cc1ccc(NC(=O)c2ccc3ccccc3c2)c(=O)n1CC(=O)N[C@@H](CC(=O)O)C(=O)COc1ccccc1 |
| 8.74 | CCCC(C(=O)N[C@@H](CC(=O)O)C(=O)COc1ccccc1)n1cccc(NC(=O)c2cccc3ccccc23)c1=O (some centres not stated) |
| 7.85 | CC(C(=O)N[C@@H](CC(=O)O)C(=O)COc1ccccc1)n1cccc(NC(=O)c2ccc3ccccc3c2)c1=O (some centres not stated) |
| 5.66 | CCCC(C(=O)N[C@@H](CC(=O)O)C(=O)COc1ccccc1)n1c(C)ccc(NC(=O)c2ccc3ccccc3c2)c1=O (some centres not stated) |
| 7.40 | CCCCCCc1ccc(NC(=O)c2cccc3ccccc23)c(=O)n1CC(=O)N[C@@H](CC(=O)O)C(=O)COc1ccccc1 |
| 8.82 | C=CCC(C(=O)N[C@@H](CC(=O)O)C(=O)COc1ccccc1)n1cccc(NC(=O)c2ccc3ccccc3c2)c1=O (some centres not stated) |
| 8.15 | CC(C(=O)N[C@@H](CC(=O)O)C(=O)COc1ccccc1)n1cccc(NC(=O)c2cccc3ccccc23)c1=O (some centres not stated) |
| 7.35 | O=C(O)C[C@H](NC(=O)Cn1cccc(NC(=O)c2ccc3ccccc3c2)c1=O)C(=O)COc1ccccc1 |
| 7.60 | O=C(O)C[C@H](NC(=O)Cn1c(-c2ccccc2)ccc(NC(=O)c2cccc3ccccc23)c1=O)C(=O)COc1ccccc1 |

— ChEMBL document CHEMBL1129873, “PYRIDONE-BASED PEPTIDOMIMETIC INHIBITORS OF INTERLEUKIN-1-CONVERTING ENZYME (ICE)” (Bioorg Med Chem Lett, 1997)
